Results taken from the NIST ThermoML archive (doi:10.1016/j.jct.2015.11.012).

Key:
[1] = 100 kPa, Liquid; for viscosity: Capillary tube (Ostwald / Ubbelohde) method; for speed of sound: Frequency=2 MHz, Linear variable-path acoustic interferometer; for mass density: Vibrating tube method
[2] = xn = mol fraction of the nth substance listed; settings: 100 kPa, Liquid; for viscosity: Capillary tube (Ostwald / Ubbelohde) method; for speed of sound: Frequency=2 MHz, Linear variable-path acoustic interferometer; for mass density: Vibrating tube method

OCCCl [1-chloro-2-hydroxyethane]
[1]
Settings | mass density [kg/m3] | speed of sound [m/s] | viscosity [mPa·s]
303.15 K | 1192.12 | 1342.8 | 2.578
308.15 K | 1186.63 | 1328.5 | 2.259
313.15 K | 1178.05 | 1315.5 | 1.852
318.15 K | 1170.87 | 1301.2 | 1.564

NCCO [2-aminoethan-1-ol]
[1]
Settings | mass density [kg/m3] | speed of sound [m/s] | viscosity [mPa·s]
303.15 K | 1008.72 | 1703.1 | 14.42
308.15 K | 1004.65 | 1685.8 | 11.71
313.15 K | 1000.74 | 1671.2 | 9.564
318.15 K | 996.04 | 1653.2 | 7.558

NCCO [2-aminoethan-1-ol] + Nc1cccc(Cl)c1
[2], x2 = 0
Settings | mass density [kg/m3] | speed of sound [m/s] | viscosity [mPa·s]
303.15 K | 1008.72 | 1703.1 | 14.42
308.15 K | 1004.65 | 1685.8 | 11.71
313.15 K | 1000.74 | 1671.2 | 9.564
318.15 K | 996.04 | 1653.2 | 7.558

OCCc1ccccc1 [2-phenylethanol]
[1]
Settings | mass density [kg/m3] | speed of sound [m/s] | viscosity [mPa·s]
303.15 K | 1012.34 | 1508.4 | 9.045
308.15 K | 1008.63 | 1490.8 | 7.193
313.15 K | 1004.84 | 1470.6 | 6.085
318.15 K | 1000.94 | 1456.4 | 4.984

OCCc1ccccc1 [2-phenylethanol] + Nc1cccc(Cl)c1
[2], x2 = 0
Settings | mass density [kg/m3] | speed of sound [m/s] | viscosity [mPa·s]
303.15 K | 1012.34 | 1508.4 | 9.045
308.15 K | 1008.63 | 1490.8 | 7.193
313.15 K | 1004.84 | 1470.6 | 6.085
318.15 K | 1000.94 | 1456.4 | 4.984

Nc1cccc(Cl)c1 [3-chlorobenzenamine]
[1]
Settings | mass density [kg/m3] | speed of sound [m/s] | viscosity [mPa·s]
303.15 K | 1205.32 | 1517.5 | 4.255
308.15 K | 1200.75 | 1501.2 | 3.842
313.15 K | 1196.02 | 1480.3 | 3.43
318.15 K | 1191.25 | 1464.8 | 3.022

Nc1cccc(Cl)c1 [3-chlorobenzenamine] + OCCCl
[2], x1 = 1
Settings | mass density [kg/m3] | speed of sound [m/s] | viscosity [mPa·s]
303.15 K | 1205.32 | 1517.5 | 4.255
308.15 K | 1200.75 | 1501.2 | 3.842
313.15 K | 1196.02 | 1480.3 | 3.43
318.15 K | 1191.25 | 1464.8 | 3.022
